Laboratory results reported in ChEMBL document CHEMBL1152112, “1-Phenyl-[2H]-tetrahydropyridazin-3-one, A-53612, a selective orally active 5-lipoxygenase inhibitor” (Bioorg Med Chem Lett, 1992).

What was measured:
[1] = biological target: T1, Polyunsaturated fatty acid lipoxygenase ALOX12 (Homo sapiens, UniProt P18054); assay: Inhibitory activity against human platelet 12-lipoxygenase was evaluated
T1 sequence (P18054 whole entry): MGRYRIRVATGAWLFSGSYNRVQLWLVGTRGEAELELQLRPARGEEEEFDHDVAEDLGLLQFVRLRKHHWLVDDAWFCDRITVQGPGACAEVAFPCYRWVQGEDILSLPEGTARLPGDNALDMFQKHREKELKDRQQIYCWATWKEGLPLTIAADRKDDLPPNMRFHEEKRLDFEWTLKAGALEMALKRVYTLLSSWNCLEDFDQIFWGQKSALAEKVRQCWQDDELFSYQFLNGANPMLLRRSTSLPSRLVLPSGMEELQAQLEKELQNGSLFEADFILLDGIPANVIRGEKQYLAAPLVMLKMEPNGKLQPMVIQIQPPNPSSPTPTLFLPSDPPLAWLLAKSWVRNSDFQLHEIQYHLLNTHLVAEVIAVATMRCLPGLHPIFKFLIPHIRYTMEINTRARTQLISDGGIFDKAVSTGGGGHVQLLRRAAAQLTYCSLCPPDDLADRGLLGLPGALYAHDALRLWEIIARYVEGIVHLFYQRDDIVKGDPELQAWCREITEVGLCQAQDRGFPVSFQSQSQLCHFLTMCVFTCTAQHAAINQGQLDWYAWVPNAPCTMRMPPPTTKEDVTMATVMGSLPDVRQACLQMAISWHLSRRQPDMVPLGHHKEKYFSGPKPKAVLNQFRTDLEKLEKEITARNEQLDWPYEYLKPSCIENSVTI

[2] = tested on: Rattus norvegicus; assay: The in vivo activity of compound was evaluated in a rat anaphylaxis model involving antigen-antibody stimulated leukotriene generation in the peritoneum by oral administration; format: functional
[3] = species on record: Rattus norvegicus; assay: Toxicity was assessed from activity to convert hemoglobin to methemoglobin in vitro at 400 uM in rat; T-toxic
[4] = biological target: T2, Polyunsaturated fatty acid lipoxygenase ALOX12 (Homo sapiens) (UniProt P18054); assay: Inhibitory activity against human platelet 12-lipoxygenase was evaluated at 100 uM
T2 sequence (whole entry): T1 sequence (P18054 whole entry)

[5] = biological target: T3, Cyclooxygenase (Rattus norvegicus, UniProt P35355+Q63921); assay: Inhibitory activity against intact rat PMNL, PGE-2 cyclooxygenase was evaluated; format: protein assay
T3 sequence (P35355 whole entry): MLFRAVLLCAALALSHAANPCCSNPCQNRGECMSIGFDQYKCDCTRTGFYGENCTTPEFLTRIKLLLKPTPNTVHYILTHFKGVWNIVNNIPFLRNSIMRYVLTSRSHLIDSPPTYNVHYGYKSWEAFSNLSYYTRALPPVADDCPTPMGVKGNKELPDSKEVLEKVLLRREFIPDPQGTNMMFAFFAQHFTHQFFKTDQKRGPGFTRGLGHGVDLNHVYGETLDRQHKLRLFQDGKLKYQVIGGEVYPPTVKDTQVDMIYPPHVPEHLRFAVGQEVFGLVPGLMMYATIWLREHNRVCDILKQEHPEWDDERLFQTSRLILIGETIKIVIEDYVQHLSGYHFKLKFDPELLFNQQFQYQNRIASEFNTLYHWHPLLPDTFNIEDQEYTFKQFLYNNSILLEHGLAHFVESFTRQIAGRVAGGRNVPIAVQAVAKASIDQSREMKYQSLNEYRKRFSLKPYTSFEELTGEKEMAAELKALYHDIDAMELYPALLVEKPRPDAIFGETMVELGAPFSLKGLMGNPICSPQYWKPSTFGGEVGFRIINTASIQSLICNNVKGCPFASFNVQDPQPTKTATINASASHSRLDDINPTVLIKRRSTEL
T3 sequence (Q63921 whole entry): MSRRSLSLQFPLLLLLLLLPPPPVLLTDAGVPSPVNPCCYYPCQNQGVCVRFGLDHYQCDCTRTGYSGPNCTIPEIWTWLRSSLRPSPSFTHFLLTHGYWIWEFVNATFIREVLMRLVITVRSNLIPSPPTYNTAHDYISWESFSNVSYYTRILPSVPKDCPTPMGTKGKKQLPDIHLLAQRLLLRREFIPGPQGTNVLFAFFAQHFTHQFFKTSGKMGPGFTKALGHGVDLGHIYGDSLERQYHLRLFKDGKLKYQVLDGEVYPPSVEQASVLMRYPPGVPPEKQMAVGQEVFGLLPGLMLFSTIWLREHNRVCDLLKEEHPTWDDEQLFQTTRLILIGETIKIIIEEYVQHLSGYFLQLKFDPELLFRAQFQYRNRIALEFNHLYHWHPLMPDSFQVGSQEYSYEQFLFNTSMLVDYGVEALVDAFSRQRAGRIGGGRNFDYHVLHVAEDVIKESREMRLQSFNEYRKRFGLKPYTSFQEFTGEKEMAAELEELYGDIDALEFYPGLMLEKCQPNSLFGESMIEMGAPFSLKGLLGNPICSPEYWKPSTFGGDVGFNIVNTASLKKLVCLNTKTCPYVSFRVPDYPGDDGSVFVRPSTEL

[6] = biological target: T4, Polyunsaturated fatty acid 5-lipoxygenase (Homo sapiens, UniProt P09917); assay: Inhibitory activity against intact human PMNL, LTB4 5-lipoxygenase was evaluated
T4 sequence (P09917 whole entry): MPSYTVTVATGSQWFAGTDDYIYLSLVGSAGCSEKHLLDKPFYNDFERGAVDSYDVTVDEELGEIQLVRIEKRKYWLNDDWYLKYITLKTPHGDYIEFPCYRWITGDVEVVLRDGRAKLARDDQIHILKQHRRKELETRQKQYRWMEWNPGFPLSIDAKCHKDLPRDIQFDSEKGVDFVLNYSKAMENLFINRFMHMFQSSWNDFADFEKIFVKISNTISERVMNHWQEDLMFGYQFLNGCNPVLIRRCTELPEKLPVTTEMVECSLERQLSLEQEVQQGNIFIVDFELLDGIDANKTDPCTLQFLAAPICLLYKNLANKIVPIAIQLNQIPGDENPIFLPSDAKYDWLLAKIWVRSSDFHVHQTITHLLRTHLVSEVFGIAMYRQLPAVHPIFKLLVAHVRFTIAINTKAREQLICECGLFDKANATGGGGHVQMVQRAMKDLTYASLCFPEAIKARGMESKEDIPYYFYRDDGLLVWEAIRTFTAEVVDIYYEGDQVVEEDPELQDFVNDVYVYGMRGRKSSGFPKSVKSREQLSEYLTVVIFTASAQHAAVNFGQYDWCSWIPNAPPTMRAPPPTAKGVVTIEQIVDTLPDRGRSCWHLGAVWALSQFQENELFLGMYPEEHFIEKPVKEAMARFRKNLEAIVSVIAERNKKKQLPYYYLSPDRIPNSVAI

[7] = Compound was evaluated for Plasma levels upon oral administration at 30 mg/kg in Dog at maximum of 0.3 hours; format: ADME, organism-based, Canis lupus familiaris; parameters: dose 30 mg/kg, route oral
[8] = biological target: Cyclooxygenase (Homo sapiens) (UniProt P35354+P23219); assay: Inhibitory activity against human whole blood, TXB2 cyclooxygenase was evaluated at 100 uM; format: protein assay
[9] = Compound was evaluated for Plasma levels upon oral administration at 30 mg/kg in Monkey at maximum of 1.0 hours; format: ADME, organism-based; parameters: dose 30 mg/kg, route oral; settings: cercopithecidae, read-out: Concentration
[10] = Compound was evaluated for Plasma levels upon oral administration at 30 mg/kg in Monkey at maximum of 0.4 hours; format: ADME, organism-based; parameters: dose 30 mg/kg, route oral; settings: cercopithecidae, read-out: Concentration
[11] = biological target: Cyclooxygenase (Rattus norvegicus) (UniProt P35355+Q63921); assay: Inhibitory activity against intact rat PMNL, PGE-2 cyclooxygenase was evaluated at 100 uM; format: protein assay
[12] = tested on: Rattus norvegicus; assay: In vivo activity of compound was evaluated in a rat anaphylaxis model involving antigen-antibody stimulated leukotriene generation in the peritoneum by oral administration; format: functional
[13] = biological target: T5, Polyunsaturated fatty acid 5-lipoxygenase (Rattus norvegicus, UniProt P12527); assay: Inhibitory activity against intact rat PMNL, LTB4 5-lipoxygenase was evaluated
T5 sequence (P12527 whole entry): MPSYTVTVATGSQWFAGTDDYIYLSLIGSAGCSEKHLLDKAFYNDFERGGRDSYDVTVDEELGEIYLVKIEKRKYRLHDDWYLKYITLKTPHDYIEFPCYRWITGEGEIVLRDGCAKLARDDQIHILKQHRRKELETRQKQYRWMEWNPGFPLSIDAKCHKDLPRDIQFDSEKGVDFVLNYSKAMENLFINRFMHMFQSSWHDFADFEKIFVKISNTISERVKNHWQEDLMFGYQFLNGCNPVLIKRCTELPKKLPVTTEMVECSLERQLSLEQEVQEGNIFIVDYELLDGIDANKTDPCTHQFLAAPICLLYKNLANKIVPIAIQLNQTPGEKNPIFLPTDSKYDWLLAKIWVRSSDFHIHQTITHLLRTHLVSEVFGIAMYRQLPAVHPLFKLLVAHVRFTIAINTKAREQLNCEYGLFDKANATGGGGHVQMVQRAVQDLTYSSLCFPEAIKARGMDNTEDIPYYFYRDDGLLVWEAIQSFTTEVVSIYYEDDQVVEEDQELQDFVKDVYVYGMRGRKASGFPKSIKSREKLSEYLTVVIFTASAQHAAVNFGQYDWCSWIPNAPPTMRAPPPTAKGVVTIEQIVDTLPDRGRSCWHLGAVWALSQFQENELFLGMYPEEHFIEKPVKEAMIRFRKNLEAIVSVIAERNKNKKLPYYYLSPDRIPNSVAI

[14] = biological target: T5, Polyunsaturated fatty acid 5-lipoxygenase; assay: Inhibitory activity against RBL broken cell-supematant 5-lipoxygenase was evaluated; format: cell-based
[15] = Half-life upon intravenous administration was tested; format: ADME, organism-based; settings: in vivo
[16] = biological target: T4, Polyunsaturated fatty acid 5-lipoxygenase; assay: Inhibitory activity against human whole blood, LTB4 5-lipoxygenase was evaluated

O=C1CCN(c2ccccc2)N1 [PHENIDONE]
IC50 [1]: 0.1 µM
ED50 [2]: 17 mg/kg

O=C1CCCN(c2ccc(O)cc2)N1
Activity [3]: Toxic

O=C1CCC(O)N(c2ccccc2)N1 (stereo unspecified)
Activity [3]: Toxic

O=C1CCCN(c2ccc(O[C@H]3O[C@@H](C(=O)O)[C@H](O)[C@@H](O)[C@@H]3O)cc2)N1
Activity [3]: Toxic

NC1=NN(c2cccc(C(F)(F)F)c2)CC1 [BW-755C]
inhibition [4]: 5%
IC50 [5]: 0.8 µM
ED50 [2]: 36 mg/kg

O=C(O)[C@H]1O[C@@H](OC2=NN(c3ccccc3)CCC2)[C@H](O)[C@@H](O)[C@@H]1O
Activity [3]: Toxic

O=C1CCCN(c2ccccc2)N1
IC50 [6]: 1 µM
concentration at 0.3 h [7]: 124 µM
inhibition [8]: 13%
Cmax [9]: 90 µM
Cmax [10]: 22 µM
inhibition [4]: 7%
inhibition [11]: 3%
ED50 [12]: 6 mg/kg
IC50 [13]: 1.2 µM
IC50 [14]: 4.3 µM
half-life [15]: 1.1 h
IC50 [16]: 0.7 µM
